Data: patent EP0340198B1, “Immunoassay for the detection of alpha-haloacetamides” (priority 1988, dated 1989)

How the values were obtained:
[1] = test system: antibodies isolated from the serum of the first bleed of the rabbit; experiment: affinity column binding of 14C-labeled analytes from aqueous solution; details: for binding by the affinity column: 14C-labeled analogs, test of non-specific binding
Description: (§1) Affinity Chromatography. The preparation of affinity columns using rabbit antisera was as follows: The rabbit IgG's were purified by passing 5 mL of the antiserum through a column containing 5 mL of the swelled protein A-agarose gel. By monitoring the absorbance at 280 nm in the column effluent, the non-bound proteins were removed by washing with PBS, and the IgG's were then eluted with acetic acid at pH 2.3 (0.58% acetic acid and 0.15 M NaCl). The fractions containing the IgG's were combined and neutralized; based on the UV absorbance at 280 nm (absorbance/1.4 = mg/mL protein), approximately 33 mg of IgG were isolated from 5 mL of serum, which was then lyophilized and stored at -20°C. The reusable protein A-agarose column was stored in PBS containing 0.02% sodium azide at 4°C.
The protein A-purified IgG was immobilized onto Affigel-10 affinity support. Affigel-10 (5 mL) was washed 3 times with isopropyl alcohol and 3 times with cold distilled water in a Buchner funnel. The gel was then added to a solution of IgG (3 mL in 0.1 M HEPES buffer, pH 7.5) at 4°C. Following 4 hrs of stirring, the gel was precipitated by gentle centrifugation and washed with HEPES buffer (3 x 3 mL). The remaining active sites on the gel were blocked by resuspending the gel in water (2 mL) and adding ethanolamine HCl (0.5 mL, 1M), and stirring the mixture at 22°C for 1 hr. The affinity column was useful in adsorbing alachlor and other analytes from aqueous solutions. After binding the alachlor, the column was washed with water (2 mL/min) to remove unbound material and alachlor was eluted with 75% aqueous methanol.
Using the antibodies isolated from the serum of the first bleed of the rabbit, an affinity column for alachlor was constructed to study its utility as an isolation and purification tool. The IgG's in the serum of the rabbit immunized with the alachlor-IgG conjugate were purified with a protein A-agarose column. The purified IgG was then immobilized onto the Affigel-10 support. Alachlor (¹⁴C-labeled) in aqueous solution was passed through the column with a flow rate of 2 mL/min; the column was washed with water and eluted with 75% aqueous methanol. The radioactivity in the wash and eluent were determined by liquid scintillation counting. […] The capacity of the column was less than 1 µg, and once this level was exceeded, alachlor no longer bound to the column. The recovery of applied radioactivity generally ranged from 80% to 100%. In a second experiment, alachlor (0.5 µg) was dissolved into increasing volumes of water ranging from 1 mL to 100 mL.
To eliminate the possibility of non-specific binding of alachlor to the affinity column, other ¹⁴C-labeled analogs were also studied. These included acetanilide herbicides butachlor, acetochlor, metolachlor, and propachlor and the previously mentioned alachlor metabolites mercapturate and its methyl ester. The affinity column bound butachlor and acetochlor, but not metolachlor, propachlor, or mercapturate.

affinity column = affinity column extraction of alachlor from rat urine containing alachlor metabolites; assay type: binding, rabbit; details: 0.5 µg/2 mL Urine
Description: as §1
The protein A-purified IgG was immobilized onto Affigel-10 affinity support. Affigel-10 (5 mL) was washed 3 times with isopropyl alcohol and 3 times with cold distilled water in a Buchner funnel. The gel was then added to a solution of IgG (3 mL in 0.1 M HEPES buffer, pH 7.5) at 4°C. Following 4 hrs of stirring, the gel was precipitated by gentle centrifugation and washed with HEPES buffer (3 x 3 mL). The remaining active sites on the gel were blocked by resuspending the gel in water (2 mL) and adding ethanolamine HCl (0.5 mL, 1M), and stirring the mixture at 22°C for 1 hr. […]

[2] = test system: antibodies toward butachlor; experiment: inhibition ELISA for butachlor; assay type: binding, rabbits; details: standard solutions at 10 and 50 ppb in DI water
Text: The generation of antibodies toward butachlor (2-chloro-2′,6′-diethyl-N-(butoxymethyl)acetanilide), amidochlor (2-chloro-2′,6′-diethyl-N-acetamidomethyl acetanilide), and metolachlor (2-chloro-2′-ethyl-6′-methyl-N-(2-methoxy-1-methylethyl)acetanilide) were accomplished following identical procedures as those described for alachlor. The individual 14C-labeled chloroacetanilide was covalently bound to HSA (human serum albumin) with AHT, and to sheep IgG with AMSA.
The hapten-IgG conjugates were used to immunize rabbits. The corresponding hapten-BSA conjugates were then utilized in checkerboard assays to determine the presence of desired antibodies in the antisera. An inhibition ELISA for butachlor was set up with antiserum, butachlor-HSA screening antigen, and butachlor. Similar assays were also set up for amidochlor and metolachlor.
The sensitivity of the inhibition ELISA for butachlor, amidochlor, and metolachlor was tested with respective standards prepared in DI water. Using the best antiserum, the butachlor ELISA produced an IC50 of 8 ppb.
The specificity of the ELISA for butachlor, amidochlor, and metolachlor were tested using standard solutions of alachlor, acetochlor, butachlor, amidochlor, metolachlor, and propachlor at concentrations of 10 and 50 ppb in DI water. At these concentrations, the ELISA assay for butachlor, amidochlor, and metolachlor was each inhibited only by the respective free hapten, and not by any of the other chloroacetanilides.

Row | SMILES | extraction of alachlor by the column ([1]; 0.5 µg per 1 mL to 0.5 µ/50 mL (0.5 ppm to 10 ppb) in water) | efficiency of alachlor extraction by the column reduced by ([1]; 0.5 µg/100 mL (5 ppb) in water) | capacity of the column ([1]; alachlor) | % 14C Eluent (75% CH3OH) (affinity column) | % 14C Wash (H2O) (affinity column) | inhibition of the ELISA assay for butachlor [2] | binding by the affinity column [1]
1 | CCc1cccc(CC)c1N(COC)C(=O)CCl [Alachlor, α-chloro-2′,6′-diethyl-N-methoxymethyl acetanilide] | effectively extracted | 50% | less than 1 µg | 83.3% | 14.7% | not | 
2 | CC(C)N(C(=O)CCl)c1ccccc1 [Propachlor, propachlor] |  |  |  |  |  | not | not
3 | CCOCN(C(=O)CCl)c1c(C)cccc1CC [Acetochlor, acetochlor] |  |  |  |  |  | not | bound
